Assay results reported in article PMC6155387, “Alkoxy and Enediyne Derivatives Containing 1,4-Benzoquinone Subunits—Synthesis and Antitumor Activity” (Molecules : A Journal of Synthetic Chemistry and Natural …, 2017).

What follows are compounds tested on C-32 (assay: antiproliferative activity (WST-1), melanoma C-32). Details: C-32, ratio of IC50 vs cisplatin.
Assay type: cell-based, human
Protocol: (§1) Biological activity of the tested compounds was assessed in vitro using cultured cell lines: melanoma C-32 (ATCC, Rockville, MD, USA), glioblastoma SNB-19 (DSMZ, Braunschweig, Germany), breast cancer MDA-MB-231 (ATCC, Rockville, MD, USA), and normal human fibroblasts derived from foreskin HFF-1 (ATCC, Rockville, MD, USA). Cell cultures were maintained using DMEM (Lonza, Basel, Switzerland) supplemented with 10% fetal bovine serum (FBS) (Biological Industries Cromwell, CT, USA) and a mixture of penicillin (10,000 U/mL) and streptomycin (10 mg/mL) (Lonza, Basel, Switzerland).
(§2) Cells were cultured using 96-well plates (Nunc Thermo Fisher Scientific, Waltham, MA, USA). Cells were seeded (5 × 10^3 cells/well) and incubated for 24 h in a standard incubator (37 °C, 5% CO2, relative humidity 95%). Subsequently, the medium was replaced with a fresh aliquot containing an examined compound (0.01; 0.05; 0.1; 0.5; 1; 5; 10; 50; 100 µg/mL), and cells were further incubated for another 72 h. Upon the conclusion of incubation, a CVDE test (Aniara, West Chester, OH, USA) using crystal violet was performed to assess the relative number of cells in the culture. A WST-1 test (Roche) was performed to examine the metabolic activity of cells and test for the presence of LDH in the medium (Roche Diagnostics GmbH, Mannheim, Germany), allowing for the assessment of the relative number of dead cells (i.e., cytotoxicity of the examined compound). UVM340 microplate readers (BIOGENET, Józefów, Poland) were used to read absorbance values.
(§3) WST-1 colorimetric assay for cell proliferation (Roche Diagnostics GmbH, Mannheim, Germany, reagent kit cat. 11644807001) is based on the viable cells’ ability to cleave the bright red-colored stable tetrazolium salt WST-1 to dark red soluble formazan. This bioreduction occurs under the influence of mitochondrial dehydrogenases (depends mostly on production of NAD(P)H in viable cells). The amount of formazan dye formed correlates directly with the number of metabolically active cells in the culture and is measured by absorbance (λ = 450 nm) following 1 h incubation of cells with the reagent.

SMILES	times more activity against the C-32 cell compared to cisplatin [times]
O=C1C(Cl)=C(OCC#CC=CC#CCO)C(=O)c2ncccc21 [Compound 24, 6-Chloro-7-(8-hydroxy-4-octen-2,6-diynyloxy)-5,8-quinolinedione]	5

Same assay, conditions: C-32, ratio of IC50 vs compound 22

SMILES	times more activity against the C-32 cell compared to (Z)-4-octen-2,6-diyn-1,8-diol (22) [times]
O=C1C(Cl)=C(OCC#CC=CC#CCO)C(=O)c2ncccc21 [Compound 24, 6-Chloro-7-(8-hydroxy-4-octen-2,6-diynyloxy)-5,8-quinolinedione]	51

Same assay, conditions: Homo sapiens, C32; melanoma C-32, 72 h, WST-1; Neg: negative in the concentration used; read-out: IC50 ± SD C-32

SMILES	IC50 [µM]
O=C1C(Cl)=C(Cl)C(=O)c2ccccc21 [Compound 1, 2,3-Dichloro-1,4-naphtoquinon, reference compound]	25 ± 0.3
Cc1ccc2c(n1)C(=O)C(Cl)=C(Cl)C2=O [Compound 3, 6,7-dichloro-2-methyl-5,8-quinolinedione]	10.5 ± 0.8
CCCOC1=C(Cl)C(=O)c2ccccc2C1=O [Compound 4, 2-Chloro-3-propoxy-1,4-naphtoquinon]	16.8 ± 0.3
C=CCOC1=C(Cl)C(=O)c2ccccc2C1=O [Compound 5, 2-Chloro-3-(2-propenoxy)-1,4-naphthoquinon]	4 ± 0.1
C#CCOC1=C(Cl)C(=O)c2ccccc2C1=O [Compound 6, 2-Chloro-3-(2-propynoxy)-1,4-naphthoquinon]	3.2 ± 0.6
CCCOC1=C(Cl)C(=O)c2ccc(C)nc2C1=O [Compound 10, 6-Chloro-2-methyl-7-propoxy-5,8-quinolinedione]	26.8 ± 1.9
C=CCOC1=C(Cl)C(=O)c2ccc(C)nc2C1=O [Compound 11, 6-Chloro-2-methyl-7-(2-propenoxy)-5,8-quinolinedione]	168 ± 6.2
O=C1C(Cl)=C(OCC#CC=CC#CCO)C(=O)c2ncccc21 [Compound 24, 6-Chloro-7-(8-hydroxy-4-octen-2,6-diynyloxy)-5,8-quinolinedione]	3.1 ± 0.1

Same assay, conditions: selectivity index, HFF-1 vs C-32

SMILES	SI (IC50 HFF-1/IC50 cancer line) C-32
O=C1C(Cl)=C(Cl)C(=O)c2ccccc21 [Compound 1, 2,3-Dichloro-1,4-naphtoquinon, reference compound]	0.62
Cc1ccc2c(n1)C(=O)C(Cl)=C(Cl)C2=O [Compound 3, 6,7-dichloro-2-methyl-5,8-quinolinedione]	0.95
CCCOC1=C(Cl)C(=O)c2ccccc2C1=O [Compound 4, 2-Chloro-3-propoxy-1,4-naphtoquinon]	0.88
C=CCOC1=C(Cl)C(=O)c2ccccc2C1=O [Compound 5, 2-Chloro-3-(2-propenoxy)-1,4-naphthoquinon]	0.95
C#CCOC1=C(Cl)C(=O)c2ccccc2C1=O [Compound 6, 2-Chloro-3-(2-propynoxy)-1,4-naphthoquinon]	1.22
CCCOC1=C(Cl)C(=O)c2ccc(C)nc2C1=O [Compound 10, 6-Chloro-2-methyl-7-propoxy-5,8-quinolinedione]	0.59
C=CCOC1=C(Cl)C(=O)c2ccc(C)nc2C1=O [Compound 11, 6-Chloro-2-methyl-7-(2-propenoxy)-5,8-quinolinedione]	0.12

These compounds were tested on SNB-19 (assay: antiproliferative activity (WST-1), glioblastoma SNB-19). Details: Homo sapiens; glioblastoma SNB-19, 72 h, WST-1; Neg: negative in the concentration used; read-out: IC50 ± SD SNB-19.
Assay type: cell-based, human
Protocol: as §1, §2, §3

SMILES	IC50 [µM]
O=C1C(Cl)=C(Cl)C(=O)c2ccccc21 [Compound 1, 2,3-Dichloro-1,4-naphtoquinon, reference compound]	26.6 ± 0.5
Cc1ccc2c(n1)C(=O)C(Cl)=C(Cl)C2=O [Compound 3, 6,7-dichloro-2-methyl-5,8-quinolinedione]	15.9 ± 0.3
CCCOC1=C(Cl)C(=O)c2ccccc2C1=O [Compound 4, 2-Chloro-3-propoxy-1,4-naphtoquinon]	18.4 ± 1.7
C=CCOC1=C(Cl)C(=O)c2ccccc2C1=O [Compound 5, 2-Chloro-3-(2-propenoxy)-1,4-naphthoquinon]	3.8 ± 0.1
C#CCOC1=C(Cl)C(=O)c2ccccc2C1=O [Compound 6, 2-Chloro-3-(2-propynoxy)-1,4-naphthoquinon]	8.4 ± 1.2
CCCOC1=C(Cl)C(=O)c2ccc(C)nc2C1=O [Compound 10, 6-Chloro-2-methyl-7-propoxy-5,8-quinolinedione]	19.8 ± 1.4
C=CCOC1=C(Cl)C(=O)c2ccc(C)nc2C1=O [Compound 11, 6-Chloro-2-methyl-7-(2-propenoxy)-5,8-quinolinedione]	33.8 ± 1.3
O=C1C(Cl)=C(OCC#CC=CC#CCO)C(=O)c2ncccc21 [Compound 24, 6-Chloro-7-(8-hydroxy-4-octen-2,6-diynyloxy)-5,8-quinolinedione]	2.4 ± 0.1

Same assay, conditions: selectivity index, HFF-1 vs SNB-19

SMILES	SI (IC50 HFF-1/IC50 cancer line) SNB-19
O=C1C(Cl)=C(Cl)C(=O)c2ccccc21 [Compound 1, 2,3-Dichloro-1,4-naphtoquinon, reference compound]	0.59
Cc1ccc2c(n1)C(=O)C(Cl)=C(Cl)C2=O [Compound 3, 6,7-dichloro-2-methyl-5,8-quinolinedione]	0.63
CCCOC1=C(Cl)C(=O)c2ccccc2C1=O [Compound 4, 2-Chloro-3-propoxy-1,4-naphtoquinon]	0.80
C=CCOC1=C(Cl)C(=O)c2ccccc2C1=O [Compound 5, 2-Chloro-3-(2-propenoxy)-1,4-naphthoquinon]	1.00
C#CCOC1=C(Cl)C(=O)c2ccccc2C1=O [Compound 6, 2-Chloro-3-(2-propynoxy)-1,4-naphthoquinon]	0.46
CCCOC1=C(Cl)C(=O)c2ccc(C)nc2C1=O [Compound 10, 6-Chloro-2-methyl-7-propoxy-5,8-quinolinedione]	0.80
C=CCOC1=C(Cl)C(=O)c2ccc(C)nc2C1=O [Compound 11, 6-Chloro-2-methyl-7-(2-propenoxy)-5,8-quinolinedione]	0.59

The compounds below were run on HFF-1 (assay: antiproliferative activity (WST-1), normal fibroblasts HFF-1). Details: Homo sapiens, normal fibroblasts HFF-1, 72 h, Neg: negative in the concentration used, read-out: IC50 ± SD HFF-1.
Assay type: cell-based, human
Protocol: as §1, §2, §3

SMILES	IC50 [µM]
O=C1C(Cl)=C(Cl)C(=O)c2ccccc21 [Compound 1, 2,3-Dichloro-1,4-naphtoquinon, reference compound]	15.6 ± 0.3
Cc1ccc2c(n1)C(=O)C(Cl)=C(Cl)C2=O [Compound 3, 6,7-dichloro-2-methyl-5,8-quinolinedione]	10 ± 1.4
CCCOC1=C(Cl)C(=O)c2ccccc2C1=O [Compound 4, 2-Chloro-3-propoxy-1,4-naphtoquinon]	14.8 ± 0.9
C=CCOC1=C(Cl)C(=O)c2ccccc2C1=O [Compound 5, 2-Chloro-3-(2-propenoxy)-1,4-naphthoquinon]	3.8 ± 0.8
C#CCOC1=C(Cl)C(=O)c2ccccc2C1=O [Compound 6, 2-Chloro-3-(2-propynoxy)-1,4-naphthoquinon]	3.9 ± 0.5
CCCOC1=C(Cl)C(=O)c2ccc(C)nc2C1=O [Compound 10, 6-Chloro-2-methyl-7-propoxy-5,8-quinolinedione]	15.8 ± 1.8
C=CCOC1=C(Cl)C(=O)c2ccc(C)nc2C1=O [Compound 11, 6-Chloro-2-methyl-7-(2-propenoxy)-5,8-quinolinedione]	20.1 ± 1.2

Same assay, conditions: normal fibroblasts HFF-1, 72 h, Neg: negative in the concentration used

SMILES	IC50 ± SD HFF-1
O=C1C(Cl)=C(OCC#CC=CC#CCO)C(=O)c2ncccc21 [Compound 24, 6-Chloro-7-(8-hydroxy-4-octen-2,6-diynyloxy)-5,8-quinolinedione]	Neg

These compounds were tested on MDA-MB-231 (assay: antiproliferative activity (WST-1), breast cancer MDA-MB-231). Details: Homo sapiens; breast cancer MDA-MB-231, 72 h, WST-1; Neg: negative in the concentration used; read-out: IC50 ± SD MDA-MB-231.
Assay type: cell-based, human
Protocol: as §1, §2, §3

SMILES	IC50 [µM]
O=C1C(Cl)=C(Cl)C(=O)c2ccccc21 [Compound 1, 2,3-Dichloro-1,4-naphtoquinon, reference compound]	31.9 ± 2.7
Cc1ccc2c(n1)C(=O)C(Cl)=C(Cl)C2=O [Compound 3, 6,7-dichloro-2-methyl-5,8-quinolinedione]	23.3 ± 0.3
CCCOC1=C(Cl)C(=O)c2ccccc2C1=O [Compound 4, 2-Chloro-3-propoxy-1,4-naphtoquinon]	1.4 ± 0.3
C=CCOC1=C(Cl)C(=O)c2ccccc2C1=O [Compound 5, 2-Chloro-3-(2-propenoxy)-1,4-naphthoquinon]	6.9 ± 1.9
C#CCOC1=C(Cl)C(=O)c2ccccc2C1=O [Compound 6, 2-Chloro-3-(2-propynoxy)-1,4-naphthoquinon]	21 ± 1.5
CCCOC1=C(Cl)C(=O)c2ccc(C)nc2C1=O [Compound 10, 6-Chloro-2-methyl-7-propoxy-5,8-quinolinedione]	22.2 ± 1.4
C=CCOC1=C(Cl)C(=O)c2ccc(C)nc2C1=O [Compound 11, 6-Chloro-2-methyl-7-(2-propenoxy)-5,8-quinolinedione]	24.6 ± 2.9
O=C1C(Cl)=C(OCC#CC=CC#CCO)C(=O)c2ncccc21 [Compound 24, 6-Chloro-7-(8-hydroxy-4-octen-2,6-diynyloxy)-5,8-quinolinedione]	110 ± 8.1

Same assay, conditions: selectivity index, HFF-1 vs MDA-MB-231

SMILES	SI (IC50 HFF-1/IC50 cancer line) MDA-MB-231
O=C1C(Cl)=C(Cl)C(=O)c2ccccc21 [Compound 1, 2,3-Dichloro-1,4-naphtoquinon, reference compound]	0.49
Cc1ccc2c(n1)C(=O)C(Cl)=C(Cl)C2=O [Compound 3, 6,7-dichloro-2-methyl-5,8-quinolinedione]	0.43
CCCOC1=C(Cl)C(=O)c2ccccc2C1=O [Compound 4, 2-Chloro-3-propoxy-1,4-naphtoquinon]	10.57
C=CCOC1=C(Cl)C(=O)c2ccccc2C1=O [Compound 5, 2-Chloro-3-(2-propenoxy)-1,4-naphthoquinon]	0.55
C#CCOC1=C(Cl)C(=O)c2ccccc2C1=O [Compound 6, 2-Chloro-3-(2-propynoxy)-1,4-naphthoquinon]	0.19
CCCOC1=C(Cl)C(=O)c2ccc(C)nc2C1=O [Compound 10, 6-Chloro-2-methyl-7-propoxy-5,8-quinolinedione]	0.71
C=CCOC1=C(Cl)C(=O)c2ccc(C)nc2C1=O [Compound 11, 6-Chloro-2-methyl-7-(2-propenoxy)-5,8-quinolinedione]	0.82
